ChEMBL document CHEMBL1201862, “PubChem BioAssay data set” (2004)
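Five compound concentrations were applied to cells in 96-well plates for 48 hours; endpoints were derived by simple linear interpolation of the resulting dose-response curve. GI50: concentration for 50% inhibition of growth.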 Active and inactive are the calls of the source. Cut-off read from the data, not from the text of the source: active = GI50 up to about 1.1 µM and inactive = higher.

How the values were obtained:
Assay in all cases: inhibition of tumour cell growth, NCI panel, 48 h
A498 = system: A498
A549 = system: A549
ACHN = system: ACHN
CAKI-1 = system: CAKI-1
COLO 205 = system: COLO 205
DU-145 = system: DU-145
EKVX = system: EKVX
HCT-116 = system: HCT-116
HCT-15 = system: HCT-15
HOP-92 = system: HOP-92
HT-29 = system: HT-29
IGROV-1 = system: IGROV-1
KM12 = system: KM12
M14 = system: M14
MDA-MB-231 = system: MDA-MB-231
MDA-MB-435 = system: MDA-MB-435
MDA-N = system: MDA-N
NCI-H226 = system: NCI-H226
NCI-H23 = system: NCI-H23
NCI/ADR-RES = system: NCI/ADR-RES
OVCAR-3 = system: OVCAR-3
OVCAR-4 = system: OVCAR-4
OVCAR-5 = system: OVCAR-5
OVCAR-8 = system: OVCAR-8
PC-3 = system: PC-3
RXF 393 = system: RXF 393
SF-268 = system: SF-268
SF-295 = system: SF-295
SF-539 = system: SF-539
SK-MEL-28 = system: SK-MEL-28
SK-MEL-5 = system: SK-MEL-5
SN12C = system: SN12C
SNB-19 = system: SNB-19
SNB-75 = system: SNB-75
SW-620 = system: SW-620
TK-10 = system: TK-10
U-251 = system: U-251
UO-31 = system: UO-31
786-0 = system: 786-0
HCC 2998 = system: HCC 2998
HOP-62 = system: HOP-62
K562 = system: K562
MCF7 = system: MCF7
MOLT-4 = system: MOLT-4
Malme-3M = system: Malme-3M
NCI-H460 = system: NCI-H460
NCI-H522 = system: NCI-H522
RPMI-8226 = system: RPMI-8226
SK-MEL-2 = system: SK-MEL-2
SK-OV-3 = system: SK-OV-3
SR = system: SR
T47D = system: T47D
UACC-62 = system: UACC-62
HL-60 = system: HL-60
LOX IMVI = system: LOX IMVI
UACC-257 = system: UACC-257

**Q.** CC(=O)N1C(=O)CC2(N=C(C)CC2=O)c2ccccc21 (stereo not given) was tested. Which GI50 (A498) did it give?
**A.** Its GI50 is > 10 µM (inactive).

**Q.** What about the GI50 (A549) of the same compound?
**A.** Its GI50 is > 10 µM (inactive).

**Q.** What about the GI50 (ACHN) of the same compound?
**A.** The GI50 was > 10 µM (inactive).

**Q.** And the GI50 (CAKI-1)?
**A.** The GI50 was > 10 µM (inactive).

**Q.** And the GI50 (COLO 205)?
**A.** Its GI50 is > 10 µM (inactive).

**Q.** What about the GI50 (DU-145) of the same compound?
**A.** Its GI50 is > 10 µM (inactive).

**Q.** And the GI50 (EKVX)?
**A.** The GI50 was > 10 µM (inactive).

**Q.** And the GI50 (HCT-116)?
**A.** Its GI50 is > 10 µM (inactive).

**Q.** And the GI50 (HCT-15)?
**A.** The GI50 was greater than 10 µM.

**Q.** And the GI50 (HOP-92)?
**A.** Its GI50 is > 10 µM (inactive).

**Q.** What about the GI50 (HT-29) of the same compound?
**A.** The GI50 was > 10 µM (inactive).

**Q.** What about the GI50 (IGROV-1) of the same compound?
**A.** The GI50 was > 10 µM (inactive).

**Q.** What about the GI50 (KM12) of the same compound?
**A.** The GI50 was > 10 µM (inactive).

**Q.** What about the GI50 (M14) of the same compound?
**A.** Its GI50 is > 10 µM (inactive).

**Q.** What about the GI50 (MDA-MB-231) of the same compound?
**A.** The GI50 was > 10 µM (inactive).

**Q.** And the GI50 (MDA-MB-435)?
**A.** The GI50 was > 10 µM (inactive).

**Q.** What about the GI50 (MDA-N) of the same compound?
**A.** Its GI50 is > 10 µM (inactive).

**Q.** What about the GI50 (NCI-H226) of the same compound?
**A.** The GI50 was > 10 µM (inactive).

**Q.** And the GI50 (NCI-H23)?
**A.** The GI50 was > 10 µM (inactive).

**Q.** And the GI50 (NCI/ADR-RES)?
**A.** The GI50 was > 10 µM (inactive).

**Q.** What about the GI50 (OVCAR-3) of the same compound?
**A.** Its GI50 is > 10 µM (inactive).

**Q.** What about the GI50 (OVCAR-4) of the same compound?
**A.** The GI50 was > 10 µM (inactive).

**Q.** What about the GI50 (OVCAR-5) of the same compound?
**A.** Its GI50 is > 10 µM (inactive).

**Q.** What about the GI50 (OVCAR-8) of the same compound?
**A.** Its GI50 is > 10 µM (inactive).

**Q.** What about the GI50 (PC-3) of the same compound?
**A.** The GI50 was > 10 µM (inactive).

**Q.** And the GI50 (RXF 393)?
**A.** The GI50 was > 10 µM (inactive).

**Q.** What about the GI50 (SF-268) of the same compound?
**A.** The GI50 was > 10 µM (inactive).

**Q.** And the GI50 (SF-295)?
**A.** The GI50 was > 10 µM (inactive).

**Q.** And the GI50 (SF-539)?
**A.** Its GI50 is 0.0132 µM (active).

**Q.** And the GI50 (SK-MEL-28)?
**A.** The GI50 was > 10 µM (inactive).

**Q.** What about the GI50 (SK-MEL-5) of the same compound?
**A.** The GI50 was > 10 µM (inactive).

**Q.** And the GI50 (SN12C)?
**A.** Its GI50 is > 10 µM (inactive).

**Q.** And the GI50 (SNB-19)?
**A.** The GI50 was > 10 µM (inactive).

**Q.** And the GI50 (SNB-75)?
**A.** The GI50 was > 10 µM (inactive).

**Q.** And the GI50 (SW-620)?
**A.** Its GI50 is > 10 µM (inactive).

**Q.** And the GI50 (TK-10)?
**A.** The GI50 was > 10 µM (inactive).

**Q.** And the GI50 (U-251)?
**A.** Its GI50 is > 10 µM (inactive).

**Q.** And the GI50 (UO-31)?
**A.** Its GI50 is 1.49 µM (inactive).

**Q.** What does the source list for CCOC(=O)[C@@]12C3C=CC(CC3)[C@]1(C(=O)c1ccccc1)C(=O)C(=O)N2c1ccccc1 (stereo not given in full)?
**A.** GI50 (786-0): > 100 µM (inactive); GI50 (A498): > 100 µM (inactive); GI50 (A549): > 100 µM (inactive); GI50 (ACHN): > 100 µM (inactive); GI50 (CAKI-1): > 100 µM (inactive); GI50 (COLO 205): > 100 µM (inactive); GI50 (DU-145): > 100 µM (inactive); GI50 (HCC 2998): > 100 µM (inactive); GI50 (HCT-116): > 100 µM (inactive); GI50 (HCT-15): > 100 µM; GI50 (HOP-62): > 100 µM (inactive); GI50 (HOP-92): > 100 µM (inactive); GI50 (HT-29): > 100 µM (inactive); GI50 (K562): > 100 µM (inactive); GI50 (KM12): > 100 µM (inactive); GI50 (M14): > 100 µM (inactive); GI50 (MCF7): > 100 µM (inactive); GI50 (MDA-MB-231): > 100 µM (inactive); GI50 (MDA-MB-435): > 100 µM (inactive); GI50 (MDA-N): > 100 µM (inactive); GI50 (MOLT-4): > 100 µM (inactive); GI50 (Malme-3M): > 100 µM (inactive); GI50 (NCI-H23): > 100 µM (inactive); GI50 (NCI-H460): > 100 µM (inactive); GI50 (NCI-H522): > 100 µM (inactive); GI50 (NCI/ADR-RES): > 100 µM (inactive); GI50 (OVCAR-3): > 100 µM (inactive); GI50 (OVCAR-4): > 100 µM (inactive); GI50 (OVCAR-5): > 100 µM (inactive); GI50 (OVCAR-8): > 100 µM (inactive); GI50 (PC-3): > 100 µM (inactive); GI50 (RPMI-8226): > 100 µM (inactive); GI50 (RXF 393): > 100 µM (inactive); GI50 (SF-268): > 100 µM (inactive); GI50 (SF-295): > 100 µM (inactive); GI50 (SF-539): > 100 µM (inactive); GI50 (SK-MEL-28): > 100 µM (inactive); GI50 (SK-MEL-2): > 100 µM (inactive); GI50 (SK-MEL-5): > 100 µM (inactive); GI50 (SK-OV-3): > 100 µM (inactive); GI50 (SN12C): > 100 µM (inactive); GI50 (SNB-19): > 100 µM (inactive); GI50 (SR): > 100 µM (inactive); GI50 (SW-620): > 100 µM (inactive); GI50 (T47D): > 100 µM (inactive); GI50 (TK-10): > 100 µM (inactive); GI50 (U-251): > 100 µM (inactive); GI50 (UACC-62): 97.3 µM (inactive); GI50 (UO-31): > 100 µM (inactive)

**Q.** What does the source list for O=C(N/N=C/c1cc(Cl)cc(Cl)c1O)c1ccccc1O?
**A.** GI50 (ACHN): 0.346 µM (active); GI50 (CAKI-1): 0.723 µM (active); GI50 (HCC 2998): 3.18 µM (inactive); GI50 (HCT-15): 0.395 µM; GI50 (HL-60): 0.175 µM (active); GI50 (HOP-62): 1.67 µM (inactive); GI50 (HT-29): 3.49 µM (inactive); GI50 (IGROV-1): 1.69 µM (inactive); GI50 (K562): 0.519 µM (active); GI50 (LOX IMVI): 0.303 µM (active); GI50 (M14): 0.521 µM (active); GI50 (NCI-H226): 1.37 µM (inactive); GI50 (NCI-H460): 0.537 µM (active); GI50 (NCI-H522): 0.254 µM (active); GI50 (OVCAR-3): 0.282 µM (active); GI50 (OVCAR-4): 0.22 µM (active); GI50 (OVCAR-5): 2.53 µM (inactive); GI50 (OVCAR-8): 0.344 µM (active); GI50 (RXF 393): 1.31 µM (inactive); GI50 (SF-268): 0.351 µM (active); GI50 (SF-295): 0.526 µM (active); GI50 (SK-MEL-28): 1 µM (active); GI50 (SK-MEL-5): 1.28 µM (inactive); GI50 (SK-OV-3): 0.929 µM (active); GI50 (SNB-19): 1.91 µM (inactive); GI50 (SNB-75): 3.05 µM (inactive); GI50 (SR): 0.281 µM (active); GI50 (SW-620): 0.735 µM (active); GI50 (TK-10): 3.06 µM (inactive); GI50 (U-251): 0.445 µM (active); GI50 (UACC-257): 1.63 µM (inactive); GI50 (UACC-62): 0.254 µM (active); GI50 (UO-31): 1.69 µM (inactive)
